# Assay results published in US11707431B2, “Dental strips for the delivery of specifically targeted antimicrobial peptides” (C3 Jian, LLC, priority 2017, dated 2023).
# No end group written: not given here.
# Test system: MRSA
# Experiment: MIC against MRSA
# Format: cell-based
# Conditions: not given
row,Compound,MIC
1,FESKILNASKELDKEKKVNTALSFNSHQDFAKAYQNGKI [PF-606],"MRSA, 50 μM"
2,FIRKFLQKLHL [K-16],"MRSA, 25 μM"
3,GSVIKKRRKRMAKKKHRKLLKKTRIQRRRAGK [PF-527],"MRSA, 50 μM"
4,KFQGEFTNIGQSYIVSASHMSTSLNTGK [PF-583],"MRSA, 50 μM"
5,MGIIAGIIKFIKGLIEKFTGK [PF-006],"MRSA, 50 μM"
6,MRFGSLALVAYDSAIKHSWPRPSSVRRLRM [PF-672],"MRSA, 1.56 μM"
7,NYAVVSHT [PF-209],"MRSA, 50 μM"
8,RESKLIAMADMIRRRI [PF-545],"MRSA, 50 μM"
9,VLPFPAIPLSRRRACVAAPRPRSRQRAS [PF-168],"MRSA, 50 μM"

# Test system: not given
# Experiment: not given
# Conditions: in vivo; cited from earlier work
row,Compound,reduce cavities
1,OC[C@@H](O)[C@H](O)[C@@H](O)CO [Xylitol],up to 80%

# Same assay, conditions: long-term; cited from earlier work
row,Compound,long-term reduction in caries
1,OC[C@@H](O)[C@H](O)[C@@H](O)CO [Xylitol],88-93%

# Test system: S. mutans
# Experiment: not given
# Conditions: Streptococcus mutans
row,Compound,% viability remaining [%]
1,TAFRLANRSATQALGK [F2/6/10-A2/6/10_C16G2],78
2,TFFRLFNRSFTQALAK [G15-A15_C16G2],47
3,TFFRLFNRSFTQALDK [G15-D15_C16G2],47
4,TFFRLFNRSFTQALFK [G15-F15_C16G2],29
5,TFFRLFNRSLTQALGK [F10-L10_C16G2],30
6,TFFRLFNRSQTQALGK [F10 to Q10_C16G2],73
7,TFFRLLNRSFTQALGK [F6-L6_C16G2],43
8,TFFRLQNRSFTQALGK [F6 to Q6_C16G2],79
9,TLFRLFNRSFTQALGK [F2-L2_C16G2],63
10,TLFRLLNRSLTQALGK [F2F6F10-L2L6L10_C16G2],26
11,TQFRLFNRSFTQALGK [F2 to Q2_C16G2],47
12,TQFRLQNRSQTQALGK [F7/11/15 sub Q_C16G2],93
13,TWFRLFNRSFTQALGK [F2-W2_C16G2],45
